From article PMC12394658, “Discovery of Zharp1-163 as a dual inhibitor of ferroptosis and necroptosis for the treatment of inflammatory disorders and kidney injury” (Cell Death Discovery, 2025)

What was measured:
Test in all cases: biochemical
Design in all cases: Kinase selectivity panel of 81 human kinases, ADP-Glo or HTRF, per cent inhibition at 1 uM
[1] = biological target: T1, HGK (Homo sapiens, UniProt O95819)
T1 construct: gene MAP4K4
Experimental: (§1) We next sought to determine the binding affinity of Zharp1-163 for RIPK1 or RIPK3 via a binding assay (Fig. 4A). […] Further, we evaluated the selectivity of Zharp1-163 against a panel of 81 kinases (at 1000 nM). […] To elucidate the binding interactions between Zharp1-163 and RIPK1 kinase, we conducted molecular docking studies using the RIPK1 crystal structure (PDB ID: 4NEU). The predicted binding conformations and interaction patterns between Zharp1-163 and the RIPK1 kinase domain are presented in Fig. 4D, E. Like the cocrystallized ligand in the 4NEU crystal complex, Zharp1-163 was predicted to act as a typical type II kinase inhibitor, interacting with the DLG (Asp156-Leu157-Gly158)-out conformation of RIPK1 (Fig. 4D, E). The 2-aminoimidazo [1,2-a] pyridine moiety of Zharp1-163 formed hydrogen bonds with Met95 in the hinge region. Furthermore, the carboxylate group of Zharp1-163 established hydrogen bonds with Asp156 in the DLG-out region. Additionally, the saturated ring of Zharp1-163 was deeply embedded within the hydrophobic allosteric pocket formed by the residues Met66, Met67, Leu70, Val76, Leu129, and Leu159, which is created by the DLG-out conformation in RIPK1 (Fig. 4D, E).  Fig. 4 Zharp1-163 is a selective inhibitor of RIPK1 kinase activity. A Binding affinity curve of Zharp1-163 with RIPK1 and RIPK3. B In an in vitro kinase activity assay, recombinant RIPK1 was incubated with Zharp1-163, after which RIPK1 kinase activity was determined by measuring ATP levels via a luciferase reporter assay system. […] Kinases are marked with dots, where the color of each kinase indicates the level of inhibition achieved by Zharp1-163. D Predicted binding conformation of Zharp1-163. E Schematic representation of the interaction patterns between Zharp1-163 and the key residues in the binding pocket of the RIPK1 kinase. […] NIH3T3-RIPK3 cells were pretreated with the indicated concentrations of Zharp1-163 for 2 h and then treated with AP20187 (100 nM) for 24 h. Cell viability was determined by measuring ATP levels. […] HeLa-MLKL (1–190) cells were pretreated with the indicated concentrations of Zharp1-163 for 2 h and subsequently treated with AP20187 (100 nM) for 24 h. Cell viability was determined by measuring ATP levels. H Viability of IFNβ-primed MEFs at 18 h after stimulation with poly(I:C) plus z-VAD and treatment with Zharp1-163 (10 μM). I Effects of different concentrations of Zharp1-163 on WT or RIPK1 KO HT-29 cells. Cell viability was determined by measuring ATP levels. The data are presented as the mean ± SD of triplicate samples.

[2] = biological target: T2, CK1γ2 (Homo sapiens, UniProt P78368)
T2 construct: gene CSNK1G2
Experimental: as §1

[3] = biological target: T3, QIK (Homo sapiens, UniProt Q9H0K1)
T3 construct: gene SIK2
Experimental: as §1

[4] = biological target: T4, PKD2 (Homo sapiens, UniProt Q9BZL6)
T4 construct: gene PRKD2
Experimental: as §1

[5] = biological target: ABL1 (Homo sapiens, UniProt P00519)
Sequence of ABL1 (P00519 whole entry): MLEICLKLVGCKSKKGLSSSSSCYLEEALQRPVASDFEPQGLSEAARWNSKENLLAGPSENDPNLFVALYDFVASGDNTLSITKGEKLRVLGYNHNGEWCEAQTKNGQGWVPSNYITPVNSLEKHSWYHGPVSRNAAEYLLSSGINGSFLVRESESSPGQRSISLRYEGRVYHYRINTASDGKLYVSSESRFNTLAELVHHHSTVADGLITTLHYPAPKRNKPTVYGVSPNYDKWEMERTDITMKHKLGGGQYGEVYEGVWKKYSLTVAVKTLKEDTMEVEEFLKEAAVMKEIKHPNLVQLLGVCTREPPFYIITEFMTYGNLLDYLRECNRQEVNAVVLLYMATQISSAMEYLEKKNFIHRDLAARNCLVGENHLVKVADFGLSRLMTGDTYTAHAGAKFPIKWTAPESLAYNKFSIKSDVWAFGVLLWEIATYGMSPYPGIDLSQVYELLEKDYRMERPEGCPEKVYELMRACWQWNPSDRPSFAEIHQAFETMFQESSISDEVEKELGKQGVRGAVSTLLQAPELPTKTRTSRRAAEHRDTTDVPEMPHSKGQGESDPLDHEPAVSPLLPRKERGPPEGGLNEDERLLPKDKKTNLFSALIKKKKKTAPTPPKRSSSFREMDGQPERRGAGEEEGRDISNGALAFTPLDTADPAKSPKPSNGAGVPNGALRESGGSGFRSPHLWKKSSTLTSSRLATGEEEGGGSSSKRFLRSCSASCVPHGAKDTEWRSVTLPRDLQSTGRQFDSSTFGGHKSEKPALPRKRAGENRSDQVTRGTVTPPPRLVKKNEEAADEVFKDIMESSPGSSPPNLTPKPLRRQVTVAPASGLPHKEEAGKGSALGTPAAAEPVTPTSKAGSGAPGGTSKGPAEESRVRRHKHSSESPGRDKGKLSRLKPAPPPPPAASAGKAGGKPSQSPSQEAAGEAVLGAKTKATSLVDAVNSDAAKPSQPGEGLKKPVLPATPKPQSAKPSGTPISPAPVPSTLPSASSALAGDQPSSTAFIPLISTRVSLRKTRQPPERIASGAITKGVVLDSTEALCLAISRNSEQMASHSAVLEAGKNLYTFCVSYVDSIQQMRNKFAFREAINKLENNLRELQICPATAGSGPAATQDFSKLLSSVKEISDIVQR
Experimental: as §1

[6] = biological target: T5, SGK (Homo sapiens, UniProt O00141)
T5 construct: gene SGK1
T5 sequence (O00141 whole entry): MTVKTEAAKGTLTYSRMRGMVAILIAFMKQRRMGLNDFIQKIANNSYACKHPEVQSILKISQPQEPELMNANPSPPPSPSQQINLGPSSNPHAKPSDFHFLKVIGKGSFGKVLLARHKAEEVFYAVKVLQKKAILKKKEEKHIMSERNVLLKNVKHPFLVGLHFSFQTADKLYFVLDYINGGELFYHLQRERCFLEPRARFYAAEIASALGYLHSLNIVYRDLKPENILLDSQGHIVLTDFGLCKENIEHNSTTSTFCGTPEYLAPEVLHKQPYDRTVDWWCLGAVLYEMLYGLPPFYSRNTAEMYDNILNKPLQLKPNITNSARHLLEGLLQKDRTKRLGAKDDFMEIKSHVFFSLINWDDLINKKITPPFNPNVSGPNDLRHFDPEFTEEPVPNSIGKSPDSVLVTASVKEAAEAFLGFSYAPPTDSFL
Experimental: as §1

[7] = biological target: MARK1 (Homo sapiens, UniProt Q9P0L2)
Experimental: as §1

[8] = biological target: T6, TSSK1 (Homo sapiens, UniProt Q9BXA7)
T6 construct: gene TSSK1B
T6 sequence (Q9BXA7 whole entry): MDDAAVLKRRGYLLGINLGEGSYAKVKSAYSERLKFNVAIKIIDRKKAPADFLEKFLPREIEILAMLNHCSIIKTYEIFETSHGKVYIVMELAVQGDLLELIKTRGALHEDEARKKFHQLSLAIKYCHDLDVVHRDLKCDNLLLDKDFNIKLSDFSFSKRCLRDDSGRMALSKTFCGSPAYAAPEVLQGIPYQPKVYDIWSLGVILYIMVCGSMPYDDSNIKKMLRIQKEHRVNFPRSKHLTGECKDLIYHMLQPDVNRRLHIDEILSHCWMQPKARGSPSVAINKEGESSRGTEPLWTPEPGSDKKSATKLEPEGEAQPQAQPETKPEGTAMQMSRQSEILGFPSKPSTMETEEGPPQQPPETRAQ
Experimental: as §1

[9] = biological target: T7, CK1α (Homo sapiens, UniProt P48729)
T7 construct: gene CSNK1A1
Experimental: as §1

[10] = biological target: T8, CaMK1α (Homo sapiens, UniProt Q14012)
T8 construct: gene CAMK1
T8 sequence (Q14012 whole entry): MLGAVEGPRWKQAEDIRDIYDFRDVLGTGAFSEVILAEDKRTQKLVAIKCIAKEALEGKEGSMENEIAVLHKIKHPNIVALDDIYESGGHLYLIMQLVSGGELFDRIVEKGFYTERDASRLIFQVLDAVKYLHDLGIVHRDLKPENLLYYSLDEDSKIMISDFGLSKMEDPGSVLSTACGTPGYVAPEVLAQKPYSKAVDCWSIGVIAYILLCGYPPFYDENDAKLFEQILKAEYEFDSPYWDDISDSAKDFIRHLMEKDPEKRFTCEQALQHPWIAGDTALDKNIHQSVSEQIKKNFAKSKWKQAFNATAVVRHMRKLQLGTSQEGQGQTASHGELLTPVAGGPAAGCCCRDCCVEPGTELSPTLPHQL
Experimental: as §1

[11] = biological target: NEK1 (Homo sapiens, UniProt Q96PY6)
Sequence of NEK1 (Q96PY6 whole entry): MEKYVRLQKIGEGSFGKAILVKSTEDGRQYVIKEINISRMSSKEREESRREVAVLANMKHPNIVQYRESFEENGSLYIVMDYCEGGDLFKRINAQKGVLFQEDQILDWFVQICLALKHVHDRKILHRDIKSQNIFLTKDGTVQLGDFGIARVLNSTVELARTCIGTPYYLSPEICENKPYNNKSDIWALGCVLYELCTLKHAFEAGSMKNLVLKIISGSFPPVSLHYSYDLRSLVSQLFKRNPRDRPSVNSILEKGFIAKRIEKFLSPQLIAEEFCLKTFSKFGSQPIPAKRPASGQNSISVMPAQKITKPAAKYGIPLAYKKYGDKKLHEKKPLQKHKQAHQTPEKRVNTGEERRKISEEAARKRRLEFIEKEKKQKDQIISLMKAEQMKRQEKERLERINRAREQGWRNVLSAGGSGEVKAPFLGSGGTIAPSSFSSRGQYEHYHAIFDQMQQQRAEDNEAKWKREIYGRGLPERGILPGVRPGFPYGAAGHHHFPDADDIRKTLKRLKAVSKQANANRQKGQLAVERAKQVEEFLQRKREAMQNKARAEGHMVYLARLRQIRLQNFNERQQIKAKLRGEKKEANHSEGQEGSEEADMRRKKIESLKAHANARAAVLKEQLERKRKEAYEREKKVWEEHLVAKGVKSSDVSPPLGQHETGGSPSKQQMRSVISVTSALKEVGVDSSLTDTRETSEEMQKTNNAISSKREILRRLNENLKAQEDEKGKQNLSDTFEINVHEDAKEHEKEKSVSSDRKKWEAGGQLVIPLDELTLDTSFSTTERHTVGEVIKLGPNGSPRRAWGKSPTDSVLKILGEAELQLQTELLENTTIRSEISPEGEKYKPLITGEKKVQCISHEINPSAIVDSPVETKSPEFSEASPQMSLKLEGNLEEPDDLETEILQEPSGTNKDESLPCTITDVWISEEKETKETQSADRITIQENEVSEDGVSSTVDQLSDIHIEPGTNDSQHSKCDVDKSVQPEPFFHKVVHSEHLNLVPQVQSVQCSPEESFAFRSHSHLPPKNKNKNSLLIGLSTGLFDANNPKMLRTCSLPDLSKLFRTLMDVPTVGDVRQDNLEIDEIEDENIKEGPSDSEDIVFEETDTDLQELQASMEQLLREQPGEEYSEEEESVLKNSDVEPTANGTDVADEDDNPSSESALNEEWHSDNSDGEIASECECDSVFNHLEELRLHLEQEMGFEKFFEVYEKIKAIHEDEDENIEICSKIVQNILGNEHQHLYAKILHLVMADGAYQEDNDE
Experimental: as §1

[12] = biological target: BRAF (Homo sapiens, UniProt P15056)
Sequence of BRAF (P15056 whole entry): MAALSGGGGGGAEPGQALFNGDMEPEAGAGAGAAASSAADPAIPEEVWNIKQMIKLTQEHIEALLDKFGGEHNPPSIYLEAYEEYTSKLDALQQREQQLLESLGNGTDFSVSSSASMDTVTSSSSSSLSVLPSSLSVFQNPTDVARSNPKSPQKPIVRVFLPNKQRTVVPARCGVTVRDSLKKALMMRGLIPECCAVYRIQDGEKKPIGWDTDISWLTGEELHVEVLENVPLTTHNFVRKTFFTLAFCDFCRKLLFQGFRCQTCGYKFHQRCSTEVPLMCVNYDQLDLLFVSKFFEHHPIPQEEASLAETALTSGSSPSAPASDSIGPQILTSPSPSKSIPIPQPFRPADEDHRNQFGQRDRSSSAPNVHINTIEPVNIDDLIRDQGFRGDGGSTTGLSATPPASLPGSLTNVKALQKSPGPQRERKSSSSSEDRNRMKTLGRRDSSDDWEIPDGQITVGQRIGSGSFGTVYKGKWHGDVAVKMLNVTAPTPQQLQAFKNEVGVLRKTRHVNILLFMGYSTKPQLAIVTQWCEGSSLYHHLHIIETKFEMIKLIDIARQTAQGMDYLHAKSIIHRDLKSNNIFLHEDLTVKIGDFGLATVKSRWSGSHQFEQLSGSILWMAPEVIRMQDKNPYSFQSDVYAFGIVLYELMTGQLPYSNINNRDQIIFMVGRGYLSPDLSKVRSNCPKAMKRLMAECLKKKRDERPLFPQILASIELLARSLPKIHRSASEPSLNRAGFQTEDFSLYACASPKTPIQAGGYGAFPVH
Experimental: as §1

[13] = biological target: TAOK1 (Homo sapiens, UniProt Q7L7X3)
Experimental: as §1

[14] = biological target: T9, p70S6K (Homo sapiens, UniProt P23443)
T9 construct: gene RPS6KB1
T9 sequence (P23443 whole entry): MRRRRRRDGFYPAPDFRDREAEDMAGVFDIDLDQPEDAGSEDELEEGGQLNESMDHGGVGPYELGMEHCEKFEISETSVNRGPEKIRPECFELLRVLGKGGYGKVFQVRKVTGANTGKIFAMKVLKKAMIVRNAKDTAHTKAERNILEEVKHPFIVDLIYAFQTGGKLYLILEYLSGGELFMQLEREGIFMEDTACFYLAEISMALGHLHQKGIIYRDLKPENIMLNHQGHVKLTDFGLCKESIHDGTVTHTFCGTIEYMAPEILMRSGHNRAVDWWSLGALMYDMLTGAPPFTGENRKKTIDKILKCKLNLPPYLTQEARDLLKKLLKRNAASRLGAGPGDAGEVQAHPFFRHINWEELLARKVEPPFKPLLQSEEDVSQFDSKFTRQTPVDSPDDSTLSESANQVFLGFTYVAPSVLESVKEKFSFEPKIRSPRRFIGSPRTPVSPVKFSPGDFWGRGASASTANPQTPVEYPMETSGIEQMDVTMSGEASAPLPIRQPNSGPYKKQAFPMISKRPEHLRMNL
Experimental: as §1

## Nc1cn2cc(-c3cnc4c(c3)N(C(=O)OC3CCCCC3)CCO4)ccc2n1 [Zharp1-163]
[1]; replicate Data1
  inhibition at 1 µM: 4.09%
[1]; replicate Data2
  inhibition at 1 µM: 11.5%
[2]; replicate Data1
  inhibition at 1 µM: -3.03%
[2]; replicate Data2
  inhibition at 1 µM: 8.14%
[3]; replicate Data1
  inhibition at 1 µM: 9.18%
[3]; replicate Data2
  inhibition at 1 µM: 2.94%
[4]; replicate Data1
  inhibition at 1 µM: 12%
[4]; replicate Data2
  inhibition at 1 µM: 6.79%
[5]; replicate Data1
  inhibition at 1 µM: 6.71%
[5]; replicate Data2
  inhibition at 1 µM: 9.11%
[6]; replicate Data1
  inhibition at 1 µM: 2.39%
[6]; replicate Data2
  inhibition at 1 µM: 0.81%
[7]; replicate Data1
  inhibition at 1 µM: -11.5%
[7]; replicate Data2
  inhibition at 1 µM: 4.11%
[8]; replicate Data1
  inhibition at 1 µM: -0.22%
[8]; replicate Data2
  inhibition at 1 µM: 2.05%
[9]; replicate Data1
  inhibition at 1 µM: -4.65%
[9]; replicate Data2
  inhibition at 1 µM: -16.6%
[10]; replicate Data1
  inhibition at 1 µM: -18.7%
[10]; replicate Data2
  inhibition at 1 µM: -6.35%
[11]; replicate Data1
  inhibition at 1 µM: 4.63%
[11]; replicate Data2
  inhibition at 1 µM: 13.4%
[12]; replicate Data1
  inhibition at 1 µM: 6.11%
[12]; replicate Data2
  inhibition at 1 µM: -8.57%
[13]; replicate Data1
  inhibition at 1 µM: 2.07%
[13]; replicate Data2
  inhibition at 1 µM: -4.35%
[14]; replicate Data1
  inhibition at 1 µM: -3.27%
[14]; replicate Data2
  inhibition at 1 µM: -3.18%
